Reference: patent publication US9737522B2, “NMDA receptor modulators and uses related thereto” (EMORY UNIVERSITY, priority 2012, dated 2017)

Legend:
Format in all cases: cell-based
[1] = molecular target: recombinant rat GluN1/GluN2A receptors (NR2A) (Rattus norvegicus (Rat), UniProt P35439+Q00959); experiment: Two-electrode voltage-clamp recordings, Xenopus laevis oocytes, NR2A; details: current in the absence of compound = 100%, 100 μM glutamate plus 30 μM glycine, read-out: NR2A response
Experimental: (§1) Two-electrode voltage-clamp recordings were made from Xenopus laevis oocytes expressing recombinant rat GluN1/GluN2A, GluN1/GluN2B, GluN1/GluN2C, GluN1/GluN2D, GluA1, or GluK2 receptors following injection of 5-10 ng of cRNA synthesized according to manufacturers' protocols (Ambin, mMessage, mMachine). cDNAs used were rat GluN1-1a (GenBank accession numbers U11418 and U08261; hereafter GluN1), GluN2A (D13211), GluN2B (U11419), GluN2C (M91563), GluN2D (L31611), GluA1 (X17184), GluK2 (Z11548). The current under voltage-clamp was recorded during perfusion with recording solution containing (in mM) 90 NaCl, 1.0 KCl, 0.5 BaCl2, 0.005 EDTA, and 10 HEPES at pH 7.4 (23° C.). Glass micropipettes had resistances of 0.3-1.0 MS2 and were filled with 3.0 M KCl. The membrane potential was clamped at −40 mV during the experiment. Recordings were digitized at 10 Hz and analyzed off line. 20 mM stock solutions of test compounds in 100% DMSO were made and diluted to obtain the final concentration; final DMSO content was 0.05-0.5% (vol/vol). Oocytes expressing GluK2 homomeric receptors were first treated with 10 μM concanavalin A (10 minutes). NMDA receptor responses were obtained by challenging oocytes with 100 μM glutamate plus 30 μM glycine; GluA1 and GluK2 receptors responses were recorded during application of 100 μM glutamate. We recorded the response to 5-7 concentrations of test drug co-applied with glutamate and glycine in 5 or more oocytes obtained from two different frogs. […] N is the Hill slope and maximum is the response predicted for saturating concentration of potentiator.

[2] = molecular target: recombinant rat GluN1/GluN2B receptors (NR2B) (Rattus norvegicus (Rat), UniProt P35439+Q00960); experiment: Two-electrode voltage-clamp recordings, Xenopus laevis oocytes, NR2B; details: current in the absence of compound = 100%, 100 μM glutamate plus 30 μM glycine, read-out: NR2B response
Experimental: as §1

[3] = molecular target: recombinant rat GluN1/GluN2C receptors (NR2C) (Rattus norvegicus (Rat), UniProt P35439+Q00961); experiment: Two-electrode voltage-clamp recordings, Xenopus laevis oocytes, NR2C; details: head prints IC50; method describes EC50 of potentiator
Experimental: as §1

[4] = molecular target: recombinant rat GluN1/GluN2D receptors (NR2D) (Rattus norvegicus (Rat), UniProt P35439+Q62645); experiment: Two-electrode voltage-clamp recordings, Xenopus laevis oocytes, NR2D; details: current in the absence of compound = 100%, 100 μM glutamate plus 30 μM glycine, read-out: NR2D response
Experimental: as §1

[5] = molecular target: recombinant rat GluN1/GluN2C receptors (NR2C) (Rattus norvegicus (Rat), UniProt Q00961); experiment: Two-electrode voltage-clamp recordings, Xenopus laevis oocytes, NR2C; details: at 100 uM; current in the absence of compound = 100%; 100 μM glutamate plus 30 μM glycine
Experimental: as §1

Chain of recombinant rat GluN1/GluN2D receptors (NR2D) (Q62645 28-1323, other chains not shown): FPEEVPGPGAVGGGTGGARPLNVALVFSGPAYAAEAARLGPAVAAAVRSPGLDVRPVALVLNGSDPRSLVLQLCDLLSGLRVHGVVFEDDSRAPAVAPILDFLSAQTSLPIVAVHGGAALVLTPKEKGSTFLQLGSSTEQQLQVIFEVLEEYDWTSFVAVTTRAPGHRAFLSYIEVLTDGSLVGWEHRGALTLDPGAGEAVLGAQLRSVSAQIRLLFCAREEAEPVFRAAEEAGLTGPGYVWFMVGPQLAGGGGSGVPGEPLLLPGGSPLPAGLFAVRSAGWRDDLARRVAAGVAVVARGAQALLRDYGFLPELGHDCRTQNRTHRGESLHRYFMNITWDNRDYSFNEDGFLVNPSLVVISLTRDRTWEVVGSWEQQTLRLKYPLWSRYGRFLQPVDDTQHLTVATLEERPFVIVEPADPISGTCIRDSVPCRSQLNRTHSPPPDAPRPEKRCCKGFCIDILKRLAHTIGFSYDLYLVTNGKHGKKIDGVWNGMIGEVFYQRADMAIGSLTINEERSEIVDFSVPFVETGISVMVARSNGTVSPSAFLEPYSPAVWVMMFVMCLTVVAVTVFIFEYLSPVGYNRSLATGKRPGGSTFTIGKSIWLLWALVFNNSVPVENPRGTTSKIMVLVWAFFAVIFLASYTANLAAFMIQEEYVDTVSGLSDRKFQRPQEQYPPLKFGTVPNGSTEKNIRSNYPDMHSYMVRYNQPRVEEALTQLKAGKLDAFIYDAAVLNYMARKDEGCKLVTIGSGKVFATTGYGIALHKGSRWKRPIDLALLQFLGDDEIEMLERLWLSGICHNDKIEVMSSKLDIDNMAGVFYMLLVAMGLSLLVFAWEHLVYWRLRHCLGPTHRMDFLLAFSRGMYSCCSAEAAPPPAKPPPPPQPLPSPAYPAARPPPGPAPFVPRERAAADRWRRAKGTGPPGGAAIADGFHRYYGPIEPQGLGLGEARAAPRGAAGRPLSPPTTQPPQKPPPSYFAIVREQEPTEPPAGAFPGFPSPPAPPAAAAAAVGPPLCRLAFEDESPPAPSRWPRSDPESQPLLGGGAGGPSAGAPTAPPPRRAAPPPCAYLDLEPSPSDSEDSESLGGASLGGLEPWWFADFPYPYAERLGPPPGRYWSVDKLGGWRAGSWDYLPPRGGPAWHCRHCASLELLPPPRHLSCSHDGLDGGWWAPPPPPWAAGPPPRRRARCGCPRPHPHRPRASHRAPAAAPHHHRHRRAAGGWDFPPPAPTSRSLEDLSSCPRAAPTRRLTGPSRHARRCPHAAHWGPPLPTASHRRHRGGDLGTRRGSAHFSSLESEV
Chain of recombinant rat GluN1/GluN2A receptors (NR2A) (Q00959 23-1464, other chains not shown): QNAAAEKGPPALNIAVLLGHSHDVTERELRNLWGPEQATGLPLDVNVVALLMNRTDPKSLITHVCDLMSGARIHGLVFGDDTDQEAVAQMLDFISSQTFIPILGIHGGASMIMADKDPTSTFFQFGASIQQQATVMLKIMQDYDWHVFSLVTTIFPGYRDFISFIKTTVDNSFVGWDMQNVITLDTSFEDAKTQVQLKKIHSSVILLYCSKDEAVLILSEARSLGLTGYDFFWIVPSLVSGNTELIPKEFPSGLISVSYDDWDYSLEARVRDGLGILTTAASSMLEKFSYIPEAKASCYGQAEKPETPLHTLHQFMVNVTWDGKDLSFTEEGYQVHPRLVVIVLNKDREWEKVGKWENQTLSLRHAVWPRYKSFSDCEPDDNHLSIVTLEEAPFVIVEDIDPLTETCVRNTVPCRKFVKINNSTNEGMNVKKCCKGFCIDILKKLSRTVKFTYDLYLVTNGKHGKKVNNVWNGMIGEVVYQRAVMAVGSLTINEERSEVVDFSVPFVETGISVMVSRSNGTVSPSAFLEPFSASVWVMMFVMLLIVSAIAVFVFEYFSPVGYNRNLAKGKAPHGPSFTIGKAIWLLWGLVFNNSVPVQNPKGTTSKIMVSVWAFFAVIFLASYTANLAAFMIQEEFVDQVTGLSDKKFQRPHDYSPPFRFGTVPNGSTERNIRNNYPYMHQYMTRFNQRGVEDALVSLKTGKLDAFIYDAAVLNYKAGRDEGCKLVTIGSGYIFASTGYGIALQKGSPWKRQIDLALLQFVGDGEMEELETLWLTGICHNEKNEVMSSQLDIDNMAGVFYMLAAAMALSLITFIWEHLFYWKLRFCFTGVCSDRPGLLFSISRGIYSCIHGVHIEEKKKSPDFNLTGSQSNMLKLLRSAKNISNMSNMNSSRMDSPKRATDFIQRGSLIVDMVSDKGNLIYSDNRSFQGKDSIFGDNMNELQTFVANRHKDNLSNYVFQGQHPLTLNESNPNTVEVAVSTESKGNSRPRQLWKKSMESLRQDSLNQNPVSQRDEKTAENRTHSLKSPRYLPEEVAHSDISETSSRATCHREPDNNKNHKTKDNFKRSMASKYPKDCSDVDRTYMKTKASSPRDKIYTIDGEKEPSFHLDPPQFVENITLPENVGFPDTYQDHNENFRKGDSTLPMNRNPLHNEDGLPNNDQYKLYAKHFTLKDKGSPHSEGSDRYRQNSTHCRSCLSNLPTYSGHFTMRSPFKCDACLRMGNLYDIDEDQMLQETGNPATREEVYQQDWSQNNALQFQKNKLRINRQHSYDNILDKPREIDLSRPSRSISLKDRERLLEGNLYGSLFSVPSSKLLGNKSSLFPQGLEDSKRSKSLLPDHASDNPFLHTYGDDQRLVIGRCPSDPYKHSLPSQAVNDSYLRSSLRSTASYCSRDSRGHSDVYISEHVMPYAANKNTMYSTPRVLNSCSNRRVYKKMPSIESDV
Chain of recombinant rat GluN1/GluN2C receptors (NR2C) (Rattus norvegicus (Rat), UniProt P35439+Q00961) (Q00961 20-1237, other chains not shown): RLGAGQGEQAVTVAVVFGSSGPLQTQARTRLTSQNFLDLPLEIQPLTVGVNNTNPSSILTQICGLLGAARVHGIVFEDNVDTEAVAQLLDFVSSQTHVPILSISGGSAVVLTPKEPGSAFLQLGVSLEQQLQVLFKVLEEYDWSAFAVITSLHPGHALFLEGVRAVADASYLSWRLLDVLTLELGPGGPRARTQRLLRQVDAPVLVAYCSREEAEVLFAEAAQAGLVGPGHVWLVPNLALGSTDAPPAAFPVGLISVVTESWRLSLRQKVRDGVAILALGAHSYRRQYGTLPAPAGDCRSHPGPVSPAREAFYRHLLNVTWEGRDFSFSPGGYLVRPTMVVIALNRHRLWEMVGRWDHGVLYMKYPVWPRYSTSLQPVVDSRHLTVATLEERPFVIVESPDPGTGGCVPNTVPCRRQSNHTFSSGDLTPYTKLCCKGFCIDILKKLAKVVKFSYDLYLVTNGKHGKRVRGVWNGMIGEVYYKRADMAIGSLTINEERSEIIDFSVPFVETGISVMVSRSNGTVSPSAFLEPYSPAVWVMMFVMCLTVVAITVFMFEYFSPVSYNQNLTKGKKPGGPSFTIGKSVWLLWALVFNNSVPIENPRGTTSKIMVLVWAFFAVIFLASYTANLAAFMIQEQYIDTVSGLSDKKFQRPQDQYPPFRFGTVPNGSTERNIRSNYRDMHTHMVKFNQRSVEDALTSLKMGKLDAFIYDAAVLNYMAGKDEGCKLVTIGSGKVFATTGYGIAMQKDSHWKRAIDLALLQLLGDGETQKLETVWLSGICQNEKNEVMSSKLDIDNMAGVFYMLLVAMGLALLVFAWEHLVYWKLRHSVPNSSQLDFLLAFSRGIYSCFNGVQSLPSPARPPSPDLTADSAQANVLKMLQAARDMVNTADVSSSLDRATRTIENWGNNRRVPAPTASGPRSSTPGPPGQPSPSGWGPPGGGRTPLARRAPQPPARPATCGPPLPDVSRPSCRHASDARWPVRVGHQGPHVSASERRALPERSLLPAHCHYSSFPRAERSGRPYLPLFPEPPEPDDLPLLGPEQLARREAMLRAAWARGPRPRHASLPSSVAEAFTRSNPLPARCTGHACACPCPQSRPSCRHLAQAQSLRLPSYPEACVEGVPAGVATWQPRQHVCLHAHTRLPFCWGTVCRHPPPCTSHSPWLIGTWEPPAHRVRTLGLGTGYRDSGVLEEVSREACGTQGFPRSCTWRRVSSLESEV
Chain of recombinant rat GluN1/GluN2C receptors (NR2C) (Rattus norvegicus (Rat), UniProt Q00961) (Q00961 20-1237, other chains not shown): as above

| SMILES | activity at 100 µM [1] [%] | activity at 100 µM [2] [%] | EC50 (potentiation) [3] [µM] | activity at 100 µM [4] [%] | NR2C response [5] [% response at 100 uM] |
| --- | --- | --- | --- | --- | --- |
| COC(=O)c1ccc(C2C(C(C)=O)=C(O)C(=O)N2CCc2c[nH]c3ccccc23)c(O)c1 (centres unmarked) | 102 | 77 | 15 | 79 |  |
| COC(=O)c1ccc(C2C(C(C)=O)=C(O)C(=O)N2CCc2c[nH]c3ccccc23)c(OC)c1 (centres unmarked) | 99 | 79 | 20 | 99 |  |
| CCOC(=O)c1ccc(C2C(C(C)=O)=C(O)C(=O)N2CCc2c(C)[nH]c3ccccc23)cc1 (centres unmarked) | 89 | 79 | 12 | 73 |  |
| COC(=O)c1ccc(C2C(C(=O)c3ccncc3)=C(O)C(=O)N2CCc2ccncc2)cc1 (centres unmarked) | 103 | 94 |  | 95 | 97 |
| COC(=O)c1ccc(C2C(C(=O)c3ccccc3Cl)=C(O)C(=O)N2CCc2c[nH]c3ccccc23)cc1 (centres unmarked) | 68 | 72 | 26 | 115 |  |
| COC(=O)c1ccc(C2C(C(=O)c3ccncc3)=C(O)C(=O)N2CCc2c[nH]cn2)cc1 (centres unmarked) | 97 | 91 |  | 90 | 84 |
| CCOC(=O)c1ccc(C2C(C(C)=O)=C(O)C(=O)N2CCc2c[nH]c3ccccc23)cc1 (centres unmarked) | 96 | 75 | 15 | 79 |  |
| COC(=O)c1ccc(C2C(C(=O)c3ccncc3)=C(O)C(=O)N2CCc2cccc3ccccc23)cc1 (centres unmarked) |  |  | 11 |  |  |
| CCOC(=O)c1ccc(C2C(C(=O)c3ccncc3)=C(O)C(=O)N2CCc2c[nH]c3cc(C)ccc23)cc1 (centres unmarked) | 99 | 77 | 9 | 73 |  |

Second part, the molecule after the results:

| activity at 100 µM [1] [%] | activity at 100 µM [2] [%] | EC50 (potentiation) [3] [µM] | activity at 100 µM [4] [%] | NR2C response [5] [% response at 100 uM] | SMILES |
| --- | --- | --- | --- | --- | --- |
| 76 |  | 5 |  |  | COC(=O)c1ccc(C2C(C(=O)c3cccc(O)c3)=C(O)C(=O)N2CCc2c[nH]c3ccccc23)cc1 (centres unmarked) |
| 83 | 43 | 4 | 61 |  | COC(=O)c1ccc(C2C(C(=O)c3cccnc3)=C(O)C(=O)N2CCc2c[nH]c3cc(Cl)ccc23)cc1 (centres unmarked) |
| 78 | 72 | 8 | 72 |  | COC(=O)c1ccc(C2C(C(=O)c3ccncc3)=C(O)C(=O)N2CCc2c[nH]c3ccccc23)cc1 (centres unmarked) |
| 80 | 37 | 14 | 64 |  | COC(=O)c1ccc(C2C(C(=O)c3cccnc3)=C(O)C(=O)N2CCc2c[nH]c3cc(F)ccc23)cc1 (centres unmarked) |
| 43 | 71 | 12 | 73 |  | O=C(C1=C(O)C(=O)N(CCc2c[nH]c3ccccc23)C1c1cccs1)c1cccnc1 (centres unmarked) |
| 91 | 66 | 4 | 64 |  | COC(=O)c1ccc(C2C(C(=O)c3cccnc3)=C(O)C(=O)N2CCc2c[nH]c3cc(C)ccc23)cc1 (centres unmarked) |
| 74 | 61 | 7 | 69 |  | CCOC(=O)c1ccc(C2C(C(=O)c3cccnc3)=C(O)C(=O)N2CCc2c[nH]c3cc(C)ccc23)cc1 (centres unmarked) |
